Seven substances from patent publication US5776901A, “Polypeptide analogues having growth hormone releasing activity” (Administrators of the Tulane Educational Fund, priority 1992, dated 1998) can be followed below.

Several values for one entry are separate records, joined by “and”; a condition that tells them apart may be missing. Equal entries are not always repeated.

Assay [1] relates to serum growth hormone (GH). Briefly: In vivo GH release in rats, subcutaneous injection, sacrifice at +15 minutes. More on the design: species or system rat. Conditions: Table 7, sacrifice +15 minutes, N = 6. As for the experimental part: (§1) Immature female Sprague-Dawley rats were obtained from the Charles River Laboratories (Wilmington, Mass.). After arrival they were housed at 25° C. with a 14:10 hour light:dark cycle. Water and Purina rat chow were available ad libitum. Pups were kept with their mothers until 21 days of age.
(§2) Twenty-six day old rats, six rats per treatment group, were anesthetized interperitoneally with 50 mg/kg of pentobarbital 20 minutes prior to i.v. treatment with peptide. Normal saline with 0.1% gelatin was the vehicle for intravenous (i.v.) injections of the peptides. The anesthetized rats, weighing 55-65 grams, were injected i.v. with the quantity of growth hormone releasing compounds indicated in Table 3. Injection was made as a 0.1 mL solution into the jugular vein.
(§3) All animals were sacrificed by guillotine 10 minutes after the final test injection (see Table 3). Trunk blood for the determination of blood GH levels was collected following decapitation. After allowing the blood to clot, it was centrifuged and the serum was separated from the clot. Serum was kept frozen until the day of sampling for radioimmunoassay (RIA) determination of growth hormone levels according to the following procedure, as developed by the National Institute of Arthritis, Diabetes and Digestive and Kidney Diseases (NIADDK).
(§4) The mixed reagents are then typically incubated at room temperature (about 25° C.) for about 24 hours prior to addition of a second antibody (e.g., goat or rabbit anti-monkey gamma globulin serum) which binds to and causes precipitation of the complexed growth hormone antiserum. Precipitated contents of the RIA tubes are then analyzed for the number of counts in a specified period of time in a gamma scintillation counter. A standard curve is prepared by plotting number of radioactive counts versus growth hormone (GH) level. GH levels of unknowns are then determined by reference to the standard curve.
(§5) Serum GH was measured by RIA with reagents provided by the National Hormone and Pituitary Program.
The general procedure of Example 2 was followed except the peptides were injected subcutaneously rather than intravenously and the sacrifice time was +15 minutes rather than +10 minutes.

Assay [2] has as its system serum growth hormone (GH). Briefly: In vivo GH release in pentobarbital anesthetized rats, i.v. injection. The following applies: sacrificed 10 min after injection, N = 6. Further details: species or system rat. How it is done:
as §1, §2, §3
Reagents are generally added to the RIA analysis tubes at a single sitting, at refrigerator temperature (about 4° C.) in the following sequence:
(b) "cold" (i.e., non-radioactive) standard or unknown serum sample to be analyzed,
(c) radio-iodinated growth hormone antigen, and
(d) growth hormone antiserum.
Reagent addition is generally carried out so that there is achieved a final RIA tube dilution of about 1:30,000 (antiserum to total liquid volume; vol:vol).
as §4, §5
Serum levels in Table 3 are recorded in ng/mL in terms of the rat GH standard of 0.61 International Units/mg (IU/mg). Data is recorded as the mean +/- standard error of the mean (SEM). Statistical analysis was performed with Student's t-test. In Table 3 the results shown are the average of studies with six rats.
The procedure of Example 2 was repeated.

Where [3] appears, read: Table 5, total dose 0.10 μg i.v.
The mark [4] stands for this setting: Table 5, total dose 0.30 μg i.v.
Setting [5] is: Table 5, total dose 1.00 μg i.v.
The mark [6] stands for this setting: Table 5, total dose 3.00 μg i.v.
Setting [7] is: Table 6, total dose 0.30 μg i.v.
The mark [8] stands for this setting: Table 6, total dose 1.00 μg i.v.

For γABU-DβNal-Ala-Phe-DPhe-Lys-NH2, the “GH Released Serum GH + SEM” value in assay [1] (total dose 1.00 μg s.c.) was determined as 1127 ± 110 ng/mL; in assay [1] (total dose .03 μg s.c.), 197 ± 31 ng/mL; in assay [1] (total dose .10 μg s.c.) it was 182 ± 20 ng/mL; in assay [1] (total dose .30 μg s.c.), 524 ± 116 ng/mL.
Consider Tip-Ala-DβNal-Ala-Trp-DPhe-Lys-NH2, for which the “GH Released Serum GH” value was determined as 168 ng/mL in assay [2] (setting [3]), 167 ng/mL in assay [2] (setting [4]), 152 ng/mL in assay [2] (setting [5]) and 272 ng/mL in assay [2] (setting [6]).
On to αγABU-DβNal-Ala-Phe-DPhe-Lys-NH2, for which the “GH Released Serum GH + SEM” value in assay [1] (total dose 1.00 μg s.c.) was determined as 1441 ± 203 ng/mL; in assay [1] (total dose .03 μg s.c.) it was 192 ± 29 ng/mL; in assay [1] (total dose .10 μg s.c.), 288 ± 62 ng/mL; in assay [1] (total dose .30 μg s.c.), 461 ± 90 ng/mL.
Take 3Me-His-DβNal-Ala-Trp-DPhe-Lys-NH2: the “GH Released Serum GH” value in assay [2] (Table 5, total dose 0.03 μg i.v.) was 122 ng/mL and 134 ng/mL; in assay [2] (setting [3]) it was 185 ng/mL and 112 ng/mL and 159 ng/mL; in assay [2] (setting [4]), 101 ng/mL and 78 ng/mL; in assay [2] (setting [5]), 134 ng/mL.
DAla-Tcc-Ala-Trp-DPhe-Lys-NH2: the “GH Released Serum GH” value amounted to 149 ng/mL in assay [2] (setting [4]) and 142 ng/mL in assay [2] (setting [6]).
α,γABU-DβNal-Ala-Trp-DPhe-LysNH2: the “GH Released Serum GH” value in assay [2] (Table 6, total dose 0.03 μg i.v.) is 621 ng/mL; in assay [2] (Table 6, total dose 0.10 μg i.v.), 1230 ng/mL; in assay [2] (setting [7]) it was 2385 ng/mL; in assay [2] (setting [8]) it was 3011 ng/mL.
Consider DAla-DμNal-Ala-Trp-LysNH2, for which the “GH Released Serum GH” value in assay [2] (setting [7]) is 187 ng/mL; in assay [2] (setting [8]) it was 257 ng/mL; in assay [2] (Table 6, total dose 3.00 μg i.v.), 198 ng/mL; in assay [2] (Table 6, total dose 10.00 μg i.v.), 193 ng/mL; in assay [2] (Table 6, total dose 30.00 μg i.v.), 236 ng/mL.
